# Test results: patent publication US12528816B2, “Substituted imidazo [1,2-b] pyridazines and [1, 2, 4] triazolo [ 4,3-b] pyridazines as camkii inhibitors” (Cardurion Pharmaceuticals, INC., priority 2020, dated 2026)
# pIC50: −log10 of the molar value.
# Target: T1, human CaMKIIδ (Homo sapiens, UniProt Q13557)
# T1 construct: Full-length, glutathione-S-transferase(GST)-tagged, human CaMKIIδ was purchased from Carna Biosciences; purchased Carna Biosciences (CaMKIIδ); Wako Pure Chemical Industries (calmodulin) 02-111
# Test: Evaluation of in vitro CaMKII inhibitory activity (binding assay, TR-FRET)
# Conditions: human CaMKIIδ, TR-FRET binding assay; class symbols A/B/C; read-out: Act (CaMKII inhibitory activity, binding assay)
# How it was run: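 Inhibitors, in eight concentrations of 4-fold dilution, were incubated 1 h at room temperature with a protein–fluorescent probe premix preformed 30 min on ice, containing calmodulin and terbium anti-GST antibody. Displacement read by TR-FRET in duplicate; IC50 by logistic fitting.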
row,Compound,pIC50
1,COc1cc(F)cc(-c2cnc3ccc(-c4cncc(N[C@@H](C)Cn5cnnn5)c4)nn23)c1C#N [compound 482],> 8.00
2,CCN(CC)CCNC(=O)c1cccc(-n2cnc3ccc(-c4ccc(C#N)c(O[C@@H](C)Cn5cnnn5)c4)nc32)c1 [compound 11],< 7.00
3,C[C@@H](Cn1cnnn1)Oc1cc(-c2ccc3ncn(-c4cn[nH]c4)c3n2)ccc1F [compound 119],> 8.00
4,C[C@@H](Cn1cnnn1)Oc1cc(-c2ccn3ncc(-c4ccccc4N4CCNCC4)c3n2)ccc1F [compound 55],< 7.00
5,C[C@@H](Cn1cnnn1)Oc1cc(-c2ccc3ncc(-c4cccc(OCC5CCN(C)C5)c4C#N)n3n2)ccc1F (stereo partly shown) [compound 201],> 8.00
6,C[C@@H](Cn1cnnn1)Oc1cccc(-c2ccn3ncc(-c4cccc(C(=O)NS(=O)(=O)C5CC5)c4)c3n2)c1 [compound 165],> 8.00
7,C[C@@H](Cn1cnnn1)Oc1cccc(-c2ccn3ncc(-c4cccc(C(=O)NCCCN5CC(O)C5)c4)c3n2)c1 [compound 66],> 8.00
8,C[C@@H](Cn1cnnn1)Oc1cccc(-c2ccn3ncc(-c4cccc(C(=O)NCCC5CCCCC5)c4)c3n2)c1 [compound 111],7.00 to 8.00
9,C[C@@H](Cn1cnnn1)Oc1cc(-c2ccn3ncc(-c4cccc(C(F)F)c4)c3n2)ccc1F [compound 131],> 8.00
10,COc1ncccc1-c1cnn2ccc(-c3ccc(F)c(O[C@@H](C)Cn4cnnn4)c3)nc12 [compound 166],> 8.00
11,C[C@@H](Cn1cnnn1)Oc1cc(-c2ccc3ncc(-c4cccc(C#N)c4C#N)n3n2)ccc1F [compound 186],> 8.00
12,"C[C@@H](Cn1cnnn1)Oc1cccc(-c2ccc3ncn(-c4cc(F)cc(O)c4C#N)c3n2)n1 [Example 472, 4-fluoro-2-hydroxy-6-[5-(6-{[(2S)-1-(1H-tetrazol-1-yl)propan-2-yl]oxy}pyridin-2-yl)-3H-imidazo[4,5-b]pyridin-3-yl]benzonitrile]",> 8.00
13,C[C@@H](Cn1cnnn1)Oc1cc(-c2ccn3ncc(-c4cncc(C#N)c4)c3n2)ccc1F [compound 156],> 8.00
14,C[C@@H](Cn1cnnn1)Oc1cc(-c2ccn3ncc(-c4ccncc4)c3n2)ccc1F [compound 21],> 8.00
15,C[C@@H](Cn1cnnn1)Oc1cc(-c2ccn3ncc(-c4ccn(CC#N)n4)c3n2)ccc1F [compound 161],> 8.00
16,C[C@@H](Cn1cnnn1)Oc1cc(-c2ccn3ncc(-c4cnn(C(F)F)c4)c3n2)ccc1F [compound 144],> 8.00
17,C[C@@H](Cn1cnnn1)Oc1cc(-c2ccc3ncn(-c4cccc(C(=O)O)c4)c3n2)ccc1F [compound 62],7.00 to 8.00

row,Compound,pIC50
1,CC(=O)NCCNC(=O)c1cccc(-c2cnn3ccc(-c4cccc(O[C@@H](C)Cn5cnnn5)c4)nc23)c1 [compound 90],> 8.00
2,C[C@@H](Cn1cnnn1)Oc1cccc(-c2ccn3ncc(-c4cccc(C(=O)NCC5CCOCC5)c4)c3n2)c1 [compound 100],> 8.00
3,C[C@@H](Cn1cnnn1)Oc1cccc(-c2ccn3ncc(-c4cccc(C(=O)NCCC5CCN(C)CC5)c4)c3n2)c1 [compound 76],> 8.00
4,COCCCOc1cccc(-c2cnc3ccc(-c4ccc(F)c(O[C@@H](C)Cn5cnnn5)c4)nn23)c1C#N [compound 172],> 8.00
5,C[C@@H](Cn1cnnn1)Oc1cc(-c2ccn3ncc(-c4ccccc4N4CCOCC4)c3n2)ccc1F [compound 48],7.00 to 8.00
6,C[C@@H](Cn1cnnn1)Oc1cc(-c2ccn3ncc(-c4ccn(CCN5CCOCC5)n4)c3n2)ccc1F [compound 160],> 8.00
7,C[C@@H](Cn1cnnn1)Oc1cc(-c2ccn3ncc(-c4cccc(C#N)c4)c3n2)ccc1F [compound 29],> 8.00
8,C[C@@H](Cn1cnnn1)Oc1cc(-c2ccc3ncc(-c4cccs4)n3c2)ccc1F [compound 17],7.00 to 8.00
9,C[C@@H](Cn1cnnn1)Oc1cncc(-c2ccc3ncc(-c4nccc(C(F)F)c4C#N)n3n2)n1 [compound 471],< 7.00
10,CC(=O)Nc1cccc(-c2cnn3ccc(-c4ccc(F)c(O[C@@H](C)Cn5cnnn5)c4)nc23)c1 [compound 36],> 8.00
11,C#Cc1ccccc1-c1cnc2ccc(-c3ccc(F)c(O[C@@H](C)Cn4cnnn4)c3)nn12 [compound 183],> 8.00
12,C[C@@H](Cn1cnnn1)Oc1cc(-c2ccc3ncc(-c4cc(C#N)c[nH]c4=O)n3n2)ccc1F [compound 220],> 8.00
13,COc1c(C(=O)NCCN2CCOCC2)cccc1-c1cnn2ccc(-c3ccc(F)c(O[C@@H](C)Cn4cnnn4)c3)nc12 [compound 152],> 8.00
14,C[C@@H](Cn1cnnn1)Oc1cc(-c2ccc3ncc(-c4cccnc4N)n3n2)ccc1F [compound 194],7.00 to 8.00
15,C[C@@H](Cn1cnnn1)Oc1cc(-c2ccc3ncn(-c4cnn(C)c4)c3n2)ccc1F [compound 120],7.00 to 8.00
16,Cc1nn(C)cc1-c1cnn2ccc(-c3ccc(F)c(O[C@@H](C)Cn4cnnn4)c3)nc12 [compound 142],7.00 to 8.00

# Same assay, conditions: in vitro CaMKII inhibitory activity (binding assay), human CaMKIIδ; read-out: Act
row,Compound,pIC50
1,"COc1cc(F)cc(-c2cnc3ccc(-c4cccc(O[C@@H](C)Cn5cnnn5)n4)nn23)c1C#N [Example 410, 4-fluoro-2-methoxy-6-[6-(6-{[(2S)-1-(1H-tetrazol-1-yl)propan-2-yl]oxy}pyridin-2-yl)imidazo[1,2-b]pyridazin-3-yl]benzonitrile]",> 8.00
2,C[C@@H](Cn1cnnn1)Oc1cc(-c2ccc3ncn(-c4cc(F)ccc4C#N)c3n2)ccn1 [compound 343],> 8.00
3,"C[C@@H](Cn1cnnn1)Oc1cccc(-c2ccc3ncc(-c4ccncc4C#N)n3n2)c1 [compound 279, 4-[6-(3-{[(2S)-1-(1H-tetrazol-1-yl)propan-2-yl]oxy}phenyl)imidazo[1,2-b]pyridazin-3-yl]pyridine-3-carbonitrile]",> 8.00
4,C[C@@H](Cn1cnnn1)Oc1cccc(-c2ccc3ncc(-c4nccc(N(C)CC(F)F)c4C#N)n3n2)c1 [compound 376],7.00 to 8.00
5,C[C@@H](Cn1cnnn1)Oc1cc(-c2ccc3ncn(-c4cc(F)ccc4C#N)c3n2)ccc1F [compound 292],> 8.00
6,C[C@@H](Cn1cnnn1)Oc1cc(-c2ccc3ncc(-c4cc(=O)n(C)cc4C#N)n3n2)ccc1F [compound 242],> 8.00
7,COCCCn1ncc(-c2cnc3ccc(-c4ccc(F)c(O[C@@H](C)Cn5cnnn5)c4)nn23)c1C(=O)NCCOC [compound 237],< 7.00
8,"C[C@@H](Cn1cnnn1)Oc1cccc(-c2ccc3ncc(-c4nccc(OCF)c4C#N)n3n2)c1 [Example 466, 4-(fluoromethoxy)-2-[6-(3-{[(2S)-1-(1H-tetrazol-1-yl)propan-2-yl]oxy}phenyl)imidazo[1,2-b]pyridazin-3-yl]pyridine-3-carbonitrile]",> 8.00
9,C[C@@H](Cn1cnnn1)Oc1cc(-c2ccc3ncc(-c4c(C#N)c(=O)ccn4CF)n3n2)ccc1F [compound 436],7.00 to 8.00
10,COc1cc(F)c(C#N)c(-n2cnc3ccc(-c4cccc(O[C@@H](C)Cn5cnnn5)n4)nc32)c1 [compound 424],> 8.00
11,C[C@@H](Cn1cnnn1)Oc1cccc(-c2ccc3ncc(-c4cc(F)c[nH]c4=O)n3n2)c1 [compound 324],> 8.00
12,C[C@@H](Cn1cnnn1)Oc1cc(-c2ccc3ncc(-c4cn(C)nc4C(F)(F)F)n3n2)ccc1F [compound 265],7.00 to 8.00
13,C[C@@H](Cn1cnnn1)Oc1cc(-c2ccn3ncc(-c4nccnc4C#N)c3n2)ccc1F [compound 294],> 8.00
14,C[C@@H](Cn1cnnn1)Oc1cccc(-c2ccc3ncc(-c4ccccc4C=O)n3n2)c1 [compound 303],> 8.00
15,C[C@@H](Cn1cnnn1)Oc1cccc(-c2ccc3ncc(-c4nccc(NCC(F)(F)F)c4C#N)n3n2)c1 [compound 369],7.00 to 8.00
16,C[C@@H](Cn1cnnn1)Oc1cccc(-c2ccc3ncc(-c4ncnc(N)c4C#N)n3n2)c1 [compound 394],7.00 to 8.00
17,C[C@@H](Cn1cnnn1)Oc1cccc(-c2ccc3ncc(-c4ccccc4CN(C)C)n3n2)c1 [compound 307],7.00 to 8.00
18,"C[C@@H](Cn1cnnn1)Oc1cccc(-c2ccc3ncc(-c4cc(F)cc(C(F)F)c4C#N)n3n2)n1 [Example 417, 2-(difluoromethyl)-4-fluoro-6-[6-(6-{[(2S)-1-(1H-tetrazol-1-yl)propan-2-yl]oxy}pyridin-2-yl)imidazo[1,2-b]pyridazin-3-yl]benzonitrile]",> 8.00
19,"C[C@@H](Cn1cnnn1)Oc1cccc(-c2ccc3ncc(-c4nc(F)ccc4C#N)n3n2)c1 [Example 467, 6-fluoro-2-[6-(3-{[(2S)-1-(1H-tetrazol-1-yl)propan-2-yl]oxy}phenyl)imidazo[1,2-b]pyridazin-3-yl]pyridine-3-carbonitrile]",> 8.00
20,C[C@@H](Cn1cnnn1)Oc1cc(-c2ccc3ncc(-c4nccc(NC(=O)OC(C)(C)C)c4C#N)n3n2)ccc1F [compound 231],> 8.00
21,C[C@@H](Cn1cnnn1)Oc1cc(-c2ccc3ncc(-c4ccn5ccnc5c4C#N)n3n2)ccc1F [compound 250],> 8.00
22,C[C@@H](Cn1cnnn1)Oc1cccc(-c2ccc3ncn(-c4cc(F)cc(OC(F)F)c4C#N)c3n2)n1 [compound 405],> 8.00
23,C[C@@H](Cn1cnnn1)Oc1cccc(-c2ccc3ncc(-c4ccc(C#N)c(F)n4)n3n2)c1 [compound 468],> 8.00
24,C[C@@H](Cn1cnnn1)Oc1cc(-c2ccc3ncc(-c4c(C#N)ccc[n+]4[O-])n3n2)ccc1F [compound 297],7.00 to 8.00
25,C[C@@H](Cn1cnnn1)Oc1cncc(-c2ccc3ncn(-c4cc(F)ccc4C#N)c3n2)c1 [compound 316],> 8.00
26,COc1cc(F)cc(-c2cnc3ccc(-c4cncc(O[C@@H](C)Cn5cncn5)n4)nn23)c1C#N [compound 443],> 8.00
27,C[C@@H](Cn1cnnn1)Oc1cccc(-c2ccc3ncc(-c4cc(F)cnc4OCC#N)n3n2)c1 [compound 359],> 8.00
28,C[C@@H](Cn1cnnn1)Oc1cccc(-c2ccc3ncc(-c4c(F)ccc(F)c4C#N)n3n2)n1 [compound 423],> 8.00
